The record followed here is patent US20160151403A1, “SMALL MOLECULE MODULATORS OF P53 FAMILY SIGNALING” (The Trustees of the University of Pennsylvania, priority 2006, published 2016).

Each structure is given as a SMILES string.

In one data set the test system is γH2AX. Briefly: γH2AX test (DNA damage signaling). To be noted: after treatment. Format: cell-based.
Data set [1] in a line: Toxicity in xenograft-bearing mice. To be noted: i.p., #1 100 mg/kg, #14 50 mg/kg, #23 10 mg/kg. Format: in vivo. The protocol: (§1) Compounds #1, #14, #17, and #23 were tested in colon-tumor xenograft-bearing mice in order to evaluate their toxicities and potential anti-tumor effects (FIG. 4). […] The initial doses were chosen below maximal tolerated doses based on the NCI DTP toxicology databases for chemical compound testing in vivo so that mice would survive drug administration and allow subsequent evaluation of anti-tumor effects. p53-null HCT116 xenografts were first tested to document anti-tumor effects in p53-deficient tumors and an experiment to simulate therapy of established tumors was designed. A total of 2×10^6 p53-null HCT116 cells were implanted on opposite flanks subcutaneously in each of 6 nude mice in each group. When tumor masses grew to about 3-5 mm in diameter, drugs were administered intra-peritoneally (#1: 100 mg/kg; #14: 50 mg/kg; #23: 10 mg/kg), and on the next day additional groups received intravenous TRAIL (15) (100 μg/mice via the tail vein). Tumor weights were determined at 7 days later. […] Nonetheless in the future it may be possible to modify the structure of #17 or identify doses where synergistic interactions with TRAIL may be observed.

The next data set deals with HCT116/p53^−/− cells. Briefly: Flow cytometry cell cycle profile, HCT116/p53(-/-). In kind it is cell-based, human. To be noted: for sub-G1 peak (apoptosis): HCT116/p53^−/−, #17 200 μM, #23 10 μM. The protocol: (§2) FIGS. 3A-3F show: Structures (A) of isolated compounds and summary of their effects on the p53 family and transcriptional targets (B). Cell cycle profiles of HCT/p53(+/+) and HCT/p53(−/−) in response to treatment by selected compounds (C-E). The dose of #17 was 200 μM and for #23 it was 10 μM. F, p73 protein levels were elevated in HCT116/p53(−/−) cells in response to treatment by selected compounds at various concentrations as indicated;
(§3) Adherent cells in a 6-well plate were trypsinized and collected in 15 ml centrifuge tubes to which were added the originally floating cells. The collected cells were ethanol-fixed and stained with propidium iodide (Sigma, St. Louis, Mo.). The DNA content of the stained cells was then measured using an Epics Elite flow cytometer (Beckman-Coulter, Fullerton, Calif.).
(§4) The ability of selected compounds from the chemical library screen to induce apoptosis of human colon tumor cells and the dependence of their effects on endogenous p53 status was further evaluated.
Background: A flow cytometer gives signals particle by particle.

For data set [2], the system named is DR5 and p21 in HCT116/p53(+/+) cells. Put plainly: Western blot of p53 target genes DR5 and p21 in HCT116/p53(+/+) cells. Format: cell-based, human. To be noted: parental HCT116 (p53+/+) cells, FIG. 2A. The protocol: FIGS. 2A-2B show protein levels of p53 target genes p21 and DR5 were induced by selected compounds in HCT/p53(+/+) cells (A) or HCT/p53(−/−) cells (B). In A, doses of compounds (μM) are listed above each lane. Cells treated with compounds were harvested and lysed for SDS-PAGE and immunoblotted with p21 or DR5 antibodies. Ran was used as a protein loading control. Doses of compounds in B were as follows: 2 μM for #15, 12 μM for #1 and #23, 20 μM for #20 and #32, 100 μM for #33, 200 μM for #5, #8, #12, #16, #17, and #22, and 400 μM for #3. The dose for adriamycin was 0.2 μg/ml. Cells were incubated for 16 hours at 37° C. with the various drugs prior to cell harvest;
Cells were collected and protein concentration was quantified by the Bio-Rad protein assay prior to SDS-PAGE. Proteins were transferred to a PVDF membrane (Immobilon-P, Millipore Corporation, Bedford, Mass.) by a semi-dry transfer apparatus (Bio-Rad Laboratories, Hercules, Calif.). The membranes with transferred proteins were blotted with 10% W/V non-fat dry milk and then incubated with the primary antibody and subsequently secondary antibodies, which were labelled by horseradish peroxidase, or infrared dyes (IR). Signals were visualized by either ECL (Amersham Pharmacia Biotech, England, UK) and exposed to an X-ray film, or scanned by the Odyssey Infared Imaging System (LI-COR Biosciences, Lincoln, Nebr.). Anti-p53, DO-1, was from Santa Cruz biotechnology, Inc. (Santa Cruz, Calif.), anti-p73 (AB-1) and anti-p21 (AB-1) were obtained from Calbiochem (San Diego, Calif.). Anti-ser20 of p53 Cell were obtained from Signaling Technology (Danvers, Mass.) and anti-DR5 antibody was obtained from Cayman Chemical (Ann Arbor, Mich.).
The chemical library screening was directed at restoring “p53 responses” in p53-deficient cells. The small molecules identified by the cell-based screening procedure appeared to be able to restore p53 responses in p53-deficient colon tumors and to eliminate viable cells. Their function was further tested on wild-type p53-expressing and p53-knockout HCT116 colon adenocarcinoma cell lines. A number of candidate modulators of signaling by the p53 family appeared to induce expression of p53 target genes such as p21 or DR5(13) either with or without stabilizing p53 protein in HCT116 cells (FIG. 2A).
For orientation: A western blot detects proteins with antibodies after separation by electrophoresis.

Another data set has as its system HCT116/p53^+/+ cells. Briefly: Flow cytometry cell cycle profile, HCT116/p53(+/+). In kind it is cell-based, human. Conditions: #17 200 μM, #23 10 μM. The protocol:
as §2, §3, §4

The test system of data set [3] is HCT116/p53(−/−) xenografts. Put plainly: In vivo anti-tumor assay, HCT116/p53(-/-) xenografts in Balb/c nude mice. Conditions: intra-peritoneal, #1 100 mg/kg, #14 50 mg/kg, #23 10 mg/kg; 7 days after treatment. The protocol:
Balb/c nude mice were inoculated subcutaneously with 2 million HCT116/p53(−/−) cells in Matrigel on each flank. 6 mice were used in each group, in each of the two experiments. When the tumor mass reached about 3-5 mm, mice were treated with the compounds alone or following a single dose of TRAIL at 100 μg/mouse in experiment 1. At 7 days after treatment, mice were sacrificed and the tumor masses were weighted. The doses used were 100 mg/kg for #1, 50 mg/kg for #14, and 10 mg/kg for #23;
Balb/c nude mice (Charles River Laboratories, Wilmington, Mass.) were inoculated subcutaneously with 2 million HCT116/p53(−/−) cells in an equal volume of Matrigel. When tumor masses reached about 3-5 mm in diameter, mice were treated with the compounds alone by intraperitoneal injection or following a single intravenous dose of TRAIL at 100 μg/mouse. At 7 days after treatment, mice were sacrificed and the tumor masses were weighed. DLD1/PG13 cells were inoculated subcutaneously with 5 million cells. At 24 hours later mice were treated with selected compounds, and subsequently bioluminescence imaging was carried out after 16 hours as previously described [Wang, W. & El-Deiry, W. S. (2003) Cancer Biol Ther 2, 196-202].
as §1

For `CO[C@H]1[C@@H](O)[C@@H](C)O[C@H](O[C@H]2[C@H](Oc3cccc4c(O)c5c(=O)oc6ccc(C)c7c(=O)oc(c34)c5c67)O[C@H](C)[C@H](O)[C@@H]2O)[C@@H]1O` [#1], in the data set with γH2AX, the γH2AX entry was “not”. For the same compound, in data set [1], the “overt toxicities in treated mice” value was “No overt toxicities were observed”. Moreover, the “sub-G1 peak (apoptosis)” value with HCT116/p53^−/− cells and in the data set with HCT116/p53^+/+ cells was “induced a sub-G1 peak characteristic of apoptosis” in each case. The “expression of p53 targets DR5 and p21 proteins” value (shortened to “expression”) in data set [2] is “increased expression of DR5 and p21 proteins”. Moreover, in data set [3], the “anti-tumor effect (tumor weights)” value is “anti-tumor effects were observed”.
For the compound `COc1cccc2c1C(=O)c1c(O)c3c(c(O)c1C2=O)CC(O)(/C(C)=N/O)CC3OC1CC(N)C(O)C(C)O1` (stereo not shown) [#14], the γH2AX entry with γH2AX is “positive”. Also, the “overt toxicities in treated mice” value in data set [1] is on record as “No overt toxicities were observed”. In addition, the “sub-G1 peak (apoptosis)” value in the data set on HCT116/p53^−/− cells and with HCT116/p53^+/+ cells was “induced a sub-G1 peak characteristic of apoptosis” throughout. Moreover, the “expression” value in data set [2] was “increased expression of DR5 and p21 proteins”. The “anti-tumor effect (tumor weights)” value in data set [3] is reported as “anti-tumor effects were observed”.
Turning to `COc1cccc2c1C(=N)c1c(O)c3c(c(O)c1C2=O)C[C@@](O)(C(C)=O)C[C@@H]3O[C@H]1C[C@H](N)[C@H](O)[C@H](C)O1` [#23], in the data set on γH2AX, the γH2AX result is recorded as “positive”. Moreover, the “overt toxicities in treated mice” value in data set [1] is listed as “No overt toxicities were observed”. Further, the “sub-G1 peak (apoptosis)” value in the data set with HCT116/p53^−/− cells and with HCT116/p53^+/+ cells was “induced a sub-G1 peak characteristic of apoptosis” throughout. For the same compound, the “G1 arrest on apoptosis induction” value in the data set with HCT116/p53^−/− cells (p53-null HCT116 cells, compared with wild-type p53-expressing HCT116) is on record as “greatly reduced G1 arrest”. Further, the “expression” value in data set [2] is “increased expression of DR5 and p21 proteins”. Also, in data set [3], the “anti-tumor effect (tumor weights)” value is on record as “anti-tumor effects were observed”.
